One series deals with CT-2A astrocytoma cells. The series can be described thus: Orthotopic CT-2A tumor model, IVIS. The note with it: 10 mg/kg intraperitoneally. It counts as in vivo, mouse. Here is the method:
Animals were imaged using an IVIS to monitor tumor growth and target expression changes. Initially, animals were anesthetized with isoflurane prior to imaging to minimize movement artifacts. D-luciferin (150 mg/kg) was then administered via an intraperitoneal injection. After 60 s, animals were positioned on the imaging platform, and images were acquired with a 10-s exposure. Experimental data were collected and quantified for fluorescence or bioluminescence signals by using Living Image software in the IVIS system. After each imaging session, animal ID, imaging parameters, and imaging time were recorded for subsequent analysis.
For orthotopic inoculation, CT-2A cells (1 × 10^5) or CT-2A-R (2 × 10^5) were suspended in 4 μL of DMEM and implanted into the brain of B6 mice. PT#3-R cells (5 × 10^5) were suspended in 4 μL of DMEM and implanted into the brain of SCID mice. After cell implantation, mice were monitored daily for survival, and their body weight was measured every 3 days starting from the seventh day. The oral vehicle consisted of 40% ethyl oleate, 12% lecithin, 20% propylene glycol, and 28% Triton X-100. Mice were administered 5 μL of vehicle per gram of body weight along with 50 mg/kg TMZ or a combination of TMZ and compound 1. […] Upon the natural death of the mice, brains were extracted and entrusted to BioTools for sectioning and HE staining.

The test system of a further series is Primary Mouse Astrocyte. Nature of the series: CCK8 assay, primary culture astrocytes. It counts as cell-based. As for the experimental part: The human glioblastoma cell lines U87MG (HTB-14), T98G (CRL-1690), and A172 (CRL-1620) were provided by the American Type Culture Collection (Manassas, VA, USA). The patient-derived cell line PT#3 was purified under the approval of the Institutional Review Board of Taipei Medical University (TMU) (No. 201006011). The murine astrocytoma cell line CT-2A (SCC194) was purchased from Merch Millipore (MA, USA). TMZ-resistant cell lines were established as described previously.[40] All cell lines were cultured in Dulbecco’s modified Eagle’s medium basal medium (Cat# 10-013-CM, CORNING, MA, USA), supplemented with 10% fetal bovine serum (Cat# 12676029, Thermo Fisher Scientific, MA, USA), 100 units/mL penicillin, and 100 μg/mL streptomycin (Cat# 15140122, Thermo Fisher Scientific) at 37 °C in the environment of 95% air and 5% carbon dioxide and maintained resistant characteristic with […] of TMZ (Cat# HY-17364, MedChemExpress, NJ, USA). Primary cultured astrocytes and neurons were derived from E17 embryonic mice. […]
Cell viability and drug cytotoxicity were determined by a CCK-8 kit (Cell Counting Kit-8, CK04-13, MD, USA) (CCK8, C0005, Target Molecule Corp., MA, USA) reagent. […] Finally, the OD was 450 nm absorbance and calculated for cell viability.

The test system of series [1] is PT#3-R TMZ-resistant GBM cell line. Nature of the series: cells. In kind it is cell-based. The note with it: MTT. Here is the method:
The cytotoxic effects of these compounds were assessed using the MTT assay (Table 1 and Supporting Information IV).
MTT assay was employed to evaluate the cytotoxicity of the synthesized compound against resistant GBM cells. The MTT (3-(4,5-dimethylthiazol-2-yl)-2,5-diphenyltetrazolium bromide, catalog no. AM0818-0005) powder was purchased from BIONOVAS (Ontario, Canada). The MTT was prepared at 10 mg/mL stock with ultrapure water and then stored at −20 °C. […] Before the experiment, the MTT stock was 10-fold diluted with the culture medium and then incubated with cells for 30 min. After the incubation, the MTT medium was discarded and added 300 μL of dimethyl sulfoxide (DMSO, cat. no. D2650, Sigma-Aldrich, MO, USA) to dissolve the cells.

A further series concerns the target T1, HDAC8 (Homo sapiens, UniProt Q9BY41).
T1 construct: purchased Reaction Biology Corporation, Malvern, PA (contract assay service)
T1 sequence (Q9BY41 1-377): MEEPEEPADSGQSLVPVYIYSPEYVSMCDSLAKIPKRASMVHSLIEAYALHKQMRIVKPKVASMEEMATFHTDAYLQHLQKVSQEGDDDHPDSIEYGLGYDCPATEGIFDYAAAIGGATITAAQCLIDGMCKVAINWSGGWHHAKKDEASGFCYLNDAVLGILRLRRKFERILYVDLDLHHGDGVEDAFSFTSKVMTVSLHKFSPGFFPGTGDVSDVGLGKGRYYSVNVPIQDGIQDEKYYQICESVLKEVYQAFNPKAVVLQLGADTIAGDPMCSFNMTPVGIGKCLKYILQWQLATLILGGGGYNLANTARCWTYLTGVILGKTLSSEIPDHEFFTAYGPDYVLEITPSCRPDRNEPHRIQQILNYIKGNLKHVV
The series can be described thus: HDAC enzyme inhibition assay, HDAC8. It counts as biochemical. The note with it: 10-dose, 3-fold serial dilution starting at 10 μM. Here is the method:
(§1) Enzyme inhibition assays were performed by the Reaction Biology Corporation, Malvern, PA (http://www.reactionbiology.com).

The next series relates to U87MG-R. Nature of the series: CCK8 cell proliferation assay, U87MG-R. In kind it is cell-based. The note with it: Homo sapiens, CCK8, 72 h. As for the experimental part:
(§2) Cell viability and drug cytotoxicity were determined by a CCK-8 kit (Cell Counting Kit-8, CK04-13, MD, USA) (CCK8, C0005, Target Molecule Corp., MA, USA) reagent. Cells were seeded 2 × 10^3 per well in the 96-well plate for 24 h, followed by treating at different concentrations of compounds for 72 h. Before the experiment, CCK8 was 10-fold diluted with the culture medium and then incubated with cells for 30 min. Finally, the OD was 450 nm absorbance and calculated for cell viability.

A further series relates to PT#3R cells. Nature of the series: Cell cycle analysis by flow cytometry. It counts as cell-based, human. The note with it: 72 h. Here is the method:
To measure the cell cycle, cells were seeded 5 × 10^4 per well in a 12-well plate for 24 h, followed by treatment of the different concentrations of compounds for 72 h. Next, the cells were fixed with 70% ethanol and stored at −20 °C for at least 24 h. After washing, the cells were stained with 30 μg/mL propidium iodide (PI, Cat# P4170, Sigma-Aldrich) and contented 10 ng/mL RNaseA (Cat# R6148, Sigma-Aldrich) for 30 min, followed by detection using flow cytometry Guava easyCyte Flow Cytometers and then analyzed by the Guava easyCyte System 3.3 (Cytec Industries Incorporated, NJ, USA).

In a further series the target is T2, HDAC1 (Homo sapiens, UniProt Q13547).
T2 construct: purchased Reaction Biology Corporation, Malvern, PA (contract assay service)
Nature of the series: HDAC enzyme inhibition assay, HDAC1. In kind it is biochemical. The note with it: 10-dose, 3-fold serial dilution starting at 10 μM. Here is the method:
as §1

Series [2] relates to CT-2A mouse astrocyte cell line. Nature of the series: CCK8 cell proliferation assay, CT-2A. It counts as cell-based. The note with it: CCK8, 72 h. Here is the method: as §2

T2 sequence (Q13547 whole entry): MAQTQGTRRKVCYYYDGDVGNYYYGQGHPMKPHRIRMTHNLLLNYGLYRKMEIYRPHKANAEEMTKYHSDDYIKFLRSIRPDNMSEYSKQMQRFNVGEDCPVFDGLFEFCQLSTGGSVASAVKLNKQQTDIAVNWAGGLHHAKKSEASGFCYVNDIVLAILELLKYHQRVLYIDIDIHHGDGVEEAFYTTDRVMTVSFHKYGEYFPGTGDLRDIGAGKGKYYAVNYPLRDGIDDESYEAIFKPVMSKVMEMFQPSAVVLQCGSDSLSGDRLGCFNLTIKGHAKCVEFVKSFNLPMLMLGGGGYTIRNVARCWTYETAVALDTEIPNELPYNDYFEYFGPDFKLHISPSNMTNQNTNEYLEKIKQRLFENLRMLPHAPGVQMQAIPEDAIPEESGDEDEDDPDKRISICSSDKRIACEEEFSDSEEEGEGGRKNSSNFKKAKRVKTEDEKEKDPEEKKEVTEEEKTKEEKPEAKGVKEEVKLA

`O=C(/C=C/c1ccc(CNC[C@H]2CN(c3ccc(N4CCOCC4)c(F)c3)C(=O)O2)cc1)NO` [compound 1, (S,E)-3-(4-((((3-(3-Fluoro-4-morpholinophenyl)-2-oxooxazolidin-5-yl)methyl)ami-no)methyl)phenyl)-N-hydroxyacrylamide]: in the series with CT-2A astrocytoma cells, the “growth of orthotopic tumors (IVIS)” value is recorded as “effectively inhibited the growth of orthotopic tumors”. For the same molecule, the IC50 in the series with Primary Mouse Astrocyte is 143 ± 7.9 µM; in series [1] (Homo sapiens, 72 h) it was 12.1 ± 1.48 µM; on HDAC8 it was 0.447 µM; in the series with U87MG-R it was 16.6 ± 0.45 µM; against HDAC1, 1.09 µM; in series [2], 5.88 ± 0.63 µM. In addition, in series [1] (20 μM and above), the “cytotoxic effect on resistant GBM cells” value is reported as “significant cytotoxic effect”. Moreover, the cell cycle distribution entry in the series on PT#3R cells is “G2/M phase arrest and increases in the sub-G1 cell population”.

Source of the values: publication PMC11831592, “Repurposing Linezolid in Conjunction with Histone Deacetylase Inhibitor Access in the Realm of Glioblastoma Therapies” (Journal of Medicinal Chemistry, 2025).
